Measured values published in US10363288B2, “Insulin mimotopes and methods of using the same” (THE REGENTS OF THE UNIVERSITY OF COLORADO, a body corporate, priority 2015, dated 2019).

Legend:
CD4+CFSElo cells = assay: T cell receptor V alpha gene sequencing of CD4+CFSElo cells after proliferation to peptide; format: cell-based, human; conditions: three HLA matched T1D subjects with two non-β57Asp DQ alleles; CD4+CFSElo cells vs baseline
Protocol: Three individuals had TCR α-chain sequencing performed on sorted CD4 T cells before peptide proliferation and then on CD4+CFSElo cells after one week of proliferation. Total RNA was directly extracted from sorted cells using the RNeasy Mini kit (Qiagen) for cells before proliferation and the PicoPure RNA isolation kit (Life Technologies) for those after proliferation. […] To amplify TCR-α and TCR-β chains, a two-step PCR was performed. PCR reactions were generated for α- and β-chains separately using the Universal Primer A Mix supplied from the SMARTer RACE cDNA Amplification Kit along with a primer designed on the constant region of α-[…] NO:22)) and β-chains […] NO:23)), respectively. The first PCR products were further amplified with nested primers ligated with the 454 adaptor sequences containing a multiple identifier sequence: forward primer for both α- and β-chains ([NT] NO:24)), reverse primer for α-chains […] NO:25)-multiple identifier sequence-[…] NO:26), and reverse primer for β-chains […] […] All sequences obtained from 454 sequencing were analyzed by the […]-QUEST algorithm (45) to identify Vgene, Jgene, and junction sequences, followed by additional analysis by in-house software to determine frequencies of Vgene usages by individual TCR sequences. Vgene frequencies determined by mean values from the 12 PCR reactions were analyzed for individual samples. […]

[1] = test system: B:9-23 specific CD4 T cells; conditions: presented by IAg7; cited from earlier work

## SHLVEALYLVCGEEG [B: 9-23 B22E, B:9-23 mimotope; B22 arginine to glutamic acid]
CD4+CFSElo cells
  TCR V gene usage of alpha chains before and after proliferation: skewing with several V alpha genes and one V delta gene
[1]
  stimulates B:9-23 specific CD4 T cells better than the wild type peptide: about 100 fold
